Values quoted from earlier work as cited in PMC10674484, “A Spectroscopic and Molecular Dynamics Study on the Aggregation Properties of a Lipopeptide Analogue of Liraglutide, a Therapeutic Peptide against Diabetes Type 2” (Molecules, 2023).
Like-named read-outs stand apart in the source and are kept apart here.

Legend:
[1] = Source text: Liraglutide (LG), a lipidated glucagon-like peptide 1 derivative, more than a decade ago became a once daily leading drug in the therapy of diabetes and obesity. However, despite its prominent role in the market, LG pharmacokinetics is still under scrutiny. Former studies have shown that LG complexation with human serum albumin (HSA) is one of the factors affecting LG circulation time and catabolism. Moreover, it has been shown that the relatively large size of HSA protects LG against proteolytic degradation or rapid renal filtration, resulting in a long half-life in human ...
[2] = remark: listed apart in the source
Source text: (§1) From this point of view, it is interesting to compare the aggregation properties and binding affinity to serum proteins of Liraglutide, a once daily administration drug, and Semaglutide, a one weekly administration drug.

albumin = system: albumin
Source text: as §1

Row | half-life ([1]; humans, subcutaneous administration) [h] | number of LP units per aggregate ([1]; pH 6.4) | number of LP units per aggregate ([1]; pH 8) | cac compared with Semaglutide [2] | Substance | affinity for albumin compared with Liraglutide (albumin)
1 | 11 to 15 | twelve | eight | lower than the latter | Liraglutide | –
2 | – | – | – | – | Semaglutide | markedly higher
